Like-named read-outs stand apart in the source and are kept apart here.
How the values were obtained:
intracellular MRSA = type: cell-based, Staphylococcus aureus; details: for %GFP+ rep 1 / z-scoreMRSA+ rep 1: replicate 1; for %GFP+ rep 2 / z-scoreMRSA+ rep 2: replicate 2; for %GFP+ rep 3 / z-scoreMRSA+ rep 3: replicate 3; for z-scoreMRSA+ mean: mean of 3 replicates
Experimental: (§1) The cells were resuspended in cell culture medium without antibiotics, seeded with 10,000 cells/well into Costar flat-bottom 96-well plates (Corning, Amsterdam, the Netherlands), and were incubated overnight at 37°C/5% CO2. The next day, the bacteria were centrifuged at ≥1800 g for 15 min and resuspended in cold PBS + 5 mM ethylenediaminetetraacetic acid (EDTA). The number of CFUs present in the bacterial suspension was estimated from the optical density at 600 nm (OD600) by assuming 8x10^8 CFUs to be present in a bacterial suspension with OD600 = 1, based on prior titrations. The bacterial suspension was diluted in cell culture medium without antibiotics and added to the cells. Accuracy of the multiplicity of infection (MOI) was validated by plating serial dilutions of the MRSA inoculums on Difco TS agar plates (BD Biosciences). The calculated mean MOI throughout all experiments was 6.8 ± 4.6 (mean ± SD). Infected cells were centrifuged for 3 min at 150 g and incubated for 1 hour at 37°C/5% CO2. Next, the cells were incubated with fresh cell culture medium supplemented with 30 µg/ml gentamicin sulphate (Lonza BioWhittaker, Basel, Switzerland) for 15 min at 37°C/5% CO2 to kill residual extracellular bacteria. Infected cells were incubated overnight at 37°C/5% CO2 in cell culture medium in the presence of kinase inhibitors and 5 µg/ml gentamicin sulphate-containing medium to prevent the growth of extracellular bacteria. The solvent of the compounds, DMSO, was used at equal % v/v as a negative control. For the screen, each compound was tested in triplicate, on separate cell culture plates, resulting in triplicate values for each kinase inhibitor.
(§2) HeLa cells were harvested by trypsinization and fixed with 1% paraformaldehyde. Samples were measured on a FACSLyric with HTS extension (BD Biosciences). Flow cytometry data were analysed using FlowJo version 10 (TreeStar, Ashland, OR, USA). HeLa cells positive for GFP were gated to calculate the percentage of MRSA-infected cells. The cell count was used as surrogate readout of cell viability.
To identify potential “hit” compounds, the flow cytometry data were used to calculate standard z-scores using z = (x-μ)/σ – zneg, where x is total event count or the percent of GFP-positive cells from a single well, μ is the mean from wells of the plate, σ is the standard deviation of the plate and zneg is the mean z-score of the negative control of the plate (i.e., DMSO) ([Korbee et al., 2018]). To minimize the possibility that the presence of extreme values on a plate affected the z-scores, raw values that deviated two-fold from the negative controls were excluded when calculating plate means and standard deviations as used in the aforementioned formula. Compounds were considered a “hit” when z-scoreMRSA+ ≤ -2 and z-scoreHeLa ≥ -3 for cell count. In cases where compounds were screened twice, the average values were used to select hit compounds.

HeLa cells = experiment: Compound screen by flow cytometry: HeLa cell count as surrogate readout of cell viability (z-scoreHeLa); type: cell-based, human
Experimental: as §1, §2
To minimize the possibility that the presence of extreme values on a plate affected the z-scores, raw values that deviated two-fold from the negative controls were excluded when calculating plate means and standard deviations as used in the aforementioned formula. Compounds were considered a “hit” when z-scoreMRSA+ ≤ -2 and z-scoreHeLa ≥ -3 for cell count. In cases where compounds were screened twice, the average values were used to select hit compounds.

[1] = PKIS compounds raw data, MRSA-infected HeLa cells
[2] = Yes/No: effect without cell death
[3] = compound screen, MRSA-infected HeLa cells
[4] = PKIS compounds raw data, replicate 1, HeLa cell count
[5] = PKIS compounds raw data, replicate 2, HeLa cell count
[6] = PKIS compounds raw data, replicate 3, HeLa cell count
[7] = compound screen, HeLa cell count, mean of 3 replicates
[8] = compound screen, HeLa cell count, replicate 1
[9] = compound screen, HeLa cell count, replicate 2
[10] = compound screen, HeLa cell count, replicate 3
[11] = PKIS compound screen raw data, MRSA-infected HeLa cells
[12] = PKIS compound screen raw data, HeLa cell count, replicate 1
[13] = PKIS compound screen raw data, HeLa cell count, replicate 2
[14] = PKIS compound screen raw data, HeLa cell count, replicate 3
[15] = PKIS compound screen, MRSA-infected HeLa cells
[16] = PKIS compound screen, Yes/No call

Compound: O=C(Nc1n[nH]c2cc(-c3ccsc3)ccc12)C1CC1 [SB-732932]
- %GFP+ rep 1 (intracellular MRSA; [1]): 25.2%
- %GFP+ rep 2 (intracellular MRSA; [1]): 22.2%
- %GFP+ rep 3 (intracellular MRSA; [1]): 22.6%
- effect (intracellular MRSA; Yes/No call from z-scoreMRSA+): No
- hit (intracellular MRSA; [2]): No
- z-scoreMRSA+ mean (intracellular MRSA; [3]): 0.001
- z-scoreMRSA+ rep 1 (intracellular MRSA; [3]): -0.0173
- z-scoreMRSA+ rep 2 (intracellular MRSA; [3]): -0.10
- z-scoreMRSA+ rep 3 (intracellular MRSA; [3]): 0.12
- cell count rep 1 (HeLa cells; [4]): 6278
- cell count rep 2 (HeLa cells; [5]): 6296
- cell count rep 3 (HeLa cells; [6]): 8200
- cell death (HeLa cells; Yes/No call from z-scoreHeLa): No
- z-scoreHeLa mean (HeLa cells; [7]): 1.60
- z-scoreHeLa rep 1 (HeLa cells; [8]): 1.39
- z-scoreHeLa rep 2 (HeLa cells; [9]): 1.54
- z-scoreHeLa rep 3 (HeLa cells; [10]): 1.87

Compound: Cl.Cl.Cl.Fc1ccc(-c2ncn(C3CCNCC3)c2-c2ccnc(Nc3ccccc3)n2)cc1 [SB-238039-R]
- %GFP+ rep 1 (intracellular MRSA; [1]): 7.4%
- %GFP+ rep 2 (intracellular MRSA; [1]): 6.7%
- %GFP+ rep 3 (intracellular MRSA; [1]): 6.5%
- effect (intracellular MRSA; Yes/No call from z-scoreMRSA+): Yes
- hit (intracellular MRSA; [2]): Yes
- z-scoreMRSA+ mean (intracellular MRSA; [3]): -2.31
- z-scoreMRSA+ rep 1 (intracellular MRSA; [3]): -1.86
- z-scoreMRSA+ rep 2 (intracellular MRSA; [3]): -2.29
- z-scoreMRSA+ rep 3 (intracellular MRSA; [3]): -2.78
- cell count rep 1 (HeLa cells; [4]): 1720
- cell count rep 2 (HeLa cells; [5]): 1088
- cell count rep 3 (HeLa cells; [6]): 3178
- cell death (HeLa cells; Yes/No call from z-scoreHeLa): No
- z-scoreHeLa mean (HeLa cells; [7]): -2.33
- z-scoreHeLa rep 1 (HeLa cells; [8]): -2.76
- z-scoreHeLa rep 2 (HeLa cells; [9]): -2.40
- z-scoreHeLa rep 3 (HeLa cells; [10]): -1.81

Compound: c1ccc(-c2n[nH]cc2-c2ccnc(-c3ccc(CNC4CCOCC4)cc3)c2)nc1 [GW709213X]
- %GFP+ rep 1 (intracellular MRSA; [11]): 20.2%
- %GFP+ rep 2 (intracellular MRSA; [11]): 23.4%
- %GFP+ rep 3 (intracellular MRSA; [11]): 24.6%
- effect (intracellular MRSA; Yes/No call from z-scoreMRSA+): No
- hit (intracellular MRSA; [2]): No
- z-scoreMRSA+ mean (intracellular MRSA; [3]): 0.80
- z-scoreMRSA+ rep 1 (intracellular MRSA; [3]): 0.38
- z-scoreMRSA+ rep 2 (intracellular MRSA; [3]): 1.09
- z-scoreMRSA+ rep 3 (intracellular MRSA; [3]): 0.92
- cell count rep 1 (HeLa cells; [12]): 27129
- cell count rep 2 (HeLa cells; [13]): 33773
- cell count rep 3 (HeLa cells; [14]): 22823
- cell death (HeLa cells; Yes/No call from z-scoreHeLa): No
- z-scoreHeLa mean (HeLa cells; [7]): 0.57
- z-scoreHeLa rep 1 (HeLa cells; [8]): -0.52
- z-scoreHeLa rep 2 (HeLa cells; [9]): 1.46
- z-scoreHeLa rep 3 (HeLa cells; [10]): 0.76

Compound: Fc1cc(Cl)ccc1Nc1ccnc2cc(-c3ccc(CN4CCOCC4)o3)ccc12 [GW560109X]
- %GFP+ rep 1 (intracellular MRSA; [11]): 14.2%
- %GFP+ rep 2 (intracellular MRSA; [11]): 18.0%
- %GFP+ rep 3 (intracellular MRSA; [11]): 17.4%
- z-scoreMRSA+ mean (intracellular MRSA; [15]): -0.89
- z-scoreMRSA+ rep 1 (intracellular MRSA; [15]): -1.22
- z-scoreMRSA+ rep 2 (intracellular MRSA; [15]): -0.38
- z-scoreMRSA+ rep 3 (intracellular MRSA; [15]): -1.05
- effect (intracellular MRSA; [16]): No
- hit (intracellular MRSA; PKIS compound screen, Yes/No call (effect without cell death)): No
- effect (intracellular MRSA; PKIS compound screen, Yes/No call on z-scoreMRSA+): No
- z-scoreMRSA+ mean (intracellular MRSA; PKIS compound screen): 0.05
- z-scoreMRSA+ rep 1 (intracellular MRSA; PKIS compound screen): 0.36
- z-scoreMRSA+ rep 2 (intracellular MRSA; PKIS compound screen): -0.28
- z-scoreMRSA+ rep 3 (intracellular MRSA; PKIS compound screen): 0.06
- %GFP+ rep 1 (intracellular MRSA; [1]): 28.9%
- %GFP+ rep 2 (intracellular MRSA; [1]): 24.6%
- %GFP+ rep 3 (intracellular MRSA; [1]): 27.6%
- cell count rep 1 (HeLa cells; [12]): 37673
- cell count rep 2 (HeLa cells; [13]): 25490
- cell count rep 3 (HeLa cells; [14]): 23726
- z-scoreHeLa mean (HeLa cells; PKIS compound screen, HeLa cell count, mean of 3 replicates): 0.75
- z-scoreHeLa rep 1 (HeLa cells; PKIS compound screen, HeLa cell count, replicate 1): 1.27
- z-scoreHeLa rep 2 (HeLa cells; PKIS compound screen, HeLa cell count, replicate 2): 0.037
- z-scoreHeLa rep 3 (HeLa cells; PKIS compound screen, HeLa cell count, replicate 3): 0.94
- cell death (HeLa cells; [16]): No
- cell death (HeLa cells; PKIS compound screen, Yes/No call on z-scoreHeLa): No
- z-scoreHeLa mean (HeLa cells; PKIS compound screen, mean of 3 replicates): 0.33
- z-scoreHeLa rep 1 (HeLa cells; PKIS compound screen, replicate 1): -0.12
- z-scoreHeLa rep 2 (HeLa cells; PKIS compound screen, replicate 2): 0.0321
- z-scoreHeLa rep 3 (HeLa cells; PKIS compound screen, replicate 3): 1.09
- cell count rep 1 (HeLa cells; [4]): 5844
- cell count rep 2 (HeLa cells; [5]): 6056
- cell count rep 3 (HeLa cells; [6]): 7316

Compound: O=C1Nc2ccc(I)cc2C1=Cc1cc(Br)c(O)c(Br)c1 [GW305074X]
- %GFP+ rep 1 (intracellular MRSA; [11]): 19.6%
- %GFP+ rep 2 (intracellular MRSA; [11]): 17.6%
- %GFP+ rep 3 (intracellular MRSA; [11]): 21.1%
- effect (intracellular MRSA; Yes/No call from z-scoreMRSA+): No
- hit (intracellular MRSA; [2]): No
- z-scoreMRSA+ mean (intracellular MRSA; [3]): -0.96
- z-scoreMRSA+ rep 1 (intracellular MRSA; [3]): -1.32
- z-scoreMRSA+ rep 2 (intracellular MRSA; [3]): -1.22
- z-scoreMRSA+ rep 3 (intracellular MRSA; [3]): -0.33
- cell death (HeLa cells): No
- cell count rep 1 (HeLa cells; human): 1595
- cell count rep 2 (HeLa cells; human): 1814
- cell count rep 3 (HeLa cells; human): 1196
- z-scoreHeLa mean (HeLa cells; human): -2.15
- z-scoreHeLa rep 1 (HeLa cells; human): -1.99
- z-scoreHeLa rep 2 (HeLa cells; human): -1.91
- z-scoreHeLa rep 3 (HeLa cells; human): -2.55

From publication PMC10999543, “Identification of kinase modulators as host-directed therapeutics against intracellular methicillin-resistant Staphylococcus aureus” (Frontiers in Cellular and Infection Microbiology, 2024)
